ChEMBL document CHEMBL1126274, “Mapping the binding site of tissue kallikrein: preparation and testing of all possible substrate analog inhibitors homologous with the sequence of kininogen between Ser386 and Gln392” (J Med Chem, 1992)
Residues, ends and D or L forms follow the SMILES beside them.

biological target: T1, Kallikrein 1 (Sus scrofa) (UniProt O97506); test: Compound was evaluated for inhibitory activity against beta-kallikrein; No inhibition at 0.5 mM concentration
T1 sequence (whole entry): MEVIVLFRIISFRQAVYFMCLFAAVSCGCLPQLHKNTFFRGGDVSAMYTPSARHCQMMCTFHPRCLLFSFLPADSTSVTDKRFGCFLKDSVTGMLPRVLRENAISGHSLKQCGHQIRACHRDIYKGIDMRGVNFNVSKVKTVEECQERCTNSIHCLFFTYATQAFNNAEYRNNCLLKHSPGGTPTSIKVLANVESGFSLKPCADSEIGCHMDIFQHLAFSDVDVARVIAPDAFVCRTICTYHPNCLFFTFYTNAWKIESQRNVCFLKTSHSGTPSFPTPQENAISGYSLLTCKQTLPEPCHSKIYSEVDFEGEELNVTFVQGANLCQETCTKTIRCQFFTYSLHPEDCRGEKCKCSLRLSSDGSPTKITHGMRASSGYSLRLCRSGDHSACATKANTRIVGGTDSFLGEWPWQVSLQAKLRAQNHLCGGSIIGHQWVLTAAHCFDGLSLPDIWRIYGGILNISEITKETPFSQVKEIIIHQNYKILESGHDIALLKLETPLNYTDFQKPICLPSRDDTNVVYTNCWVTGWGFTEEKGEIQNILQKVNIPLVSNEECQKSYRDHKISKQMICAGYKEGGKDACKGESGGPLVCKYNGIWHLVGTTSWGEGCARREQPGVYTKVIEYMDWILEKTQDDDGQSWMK

inhibition	Compound
No inhibition	CC(=O)N[C@@H](CCCN=C(N)N)C(=O)N[C@@H](CO)C(N)=O (Ac-Arg-Ser-NH2)
No inhibition	CC(=O)N[C@@H](CCCN=C(N)N)C(=O)N[C@@H](CO)C(=O)N[C@H](C(N)=O)C(C)C (Ac-Arg-Ser-Val-NH2)
No inhibition	CC(=O)N1CCC[C@H]1C(=O)N[C@@H](Cc1ccccc1)C(=O)N[C@@H](CCCN=C(N)N)C(N)=O (Ac-Pro-Phe-Arg-NH2)
No inhibition	CC(=O)N[C@@H](CO)C(=O)N1CCC[C@H]1C(N)=O (Ac-Ser-Pro-NH2)
No inhibition	CC(=O)N[C@@H](CO)C(=O)N1CCC[C@H]1C(=O)N[C@@H](Cc1ccccc1)C(N)=O (Ac-Ser-Pro-Phe-NH2)
No inhibition	CC(=O)N[C@@H](CO)C(=O)N[C@H](C(N)=O)C(C)C (Ac-Ser-Val-NH2)

biological target: T1, Kallikrein 1 (Sus scrofa); test: Compound was evaluated for inhibitory activity against beta-kallikrein; No inhibition at 1 mM concentration

inhibition	Compound
No inhibition	CC(=O)N[C@@H](Cc1ccccc1)C(=O)N[C@@H](CCCN=C(N)N)C(N)=O (Ac-Phe-Arg-NH2)
No inhibition	CC(=O)N1CCC[C@H]1C(=O)N[C@@H](Cc1ccccc1)C(N)=O (Ac-Pro-Phe-NH2)

biological target: T1, Kallikrein 1 (Sus scrofa); test: Compound was evaluated for inhibitory activity against beta-kallikrein; No inhibition at 20 mM concentration

inhibition	Compound
No inhibition	CC(=O)N[C@@H](CO)C(=O)N[C@H](C(=O)N[C@@H](CCC(N)=O)C(N)=O)C(C)C (Ac-Ser-Val-Gln-NH2)

biological target: T1, Kallikrein 1 (Sus scrofa); test: Compound was evaluated for inhibitory activity against beta-kallikrein; No inhibition at 28 mM concentration

inhibition	Compound
No inhibition	CC(=O)N[C@H](C(=O)N[C@@H](CCC(N)=O)C(N)=O)C(C)C (Ac-Val-Gln-NH2)

biological target: T2, Glandular kallikrein (Sus scrofa, UniProt P00752); test: Inhibitory activity against beta-kallikrein
T2 sequence (P00752 whole entry): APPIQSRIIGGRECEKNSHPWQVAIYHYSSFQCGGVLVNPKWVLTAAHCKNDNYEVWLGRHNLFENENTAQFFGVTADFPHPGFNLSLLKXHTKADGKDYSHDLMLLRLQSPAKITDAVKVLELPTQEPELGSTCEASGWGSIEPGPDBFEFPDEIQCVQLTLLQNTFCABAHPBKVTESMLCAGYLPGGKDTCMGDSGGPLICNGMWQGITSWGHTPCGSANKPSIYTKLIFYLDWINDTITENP

Ki	Compound
479 µM	CC(=O)N[C@@H](Cc1ccccc1)C(=O)N[C@@H](CCCNC(=N)N)C(=O)N[C@@H](CO)C(=O)N[C@H](C(N)=O)C(C)C (Ac-FRSV-NH2)
578 µM	CC(=O)N1CCC[C@H]1C(=O)N[C@@H](Cc1ccccc1)C(=O)N[C@@H](CCCN=C(N)N)C(=O)N[C@@H](CO)C(N)=O (Ac-PFRS-NH2)
718 µM	CC(=O)N[C@@H](Cc1ccccc1)C(=O)N[C@@H](CCCNC(=N)N)C(=O)N[C@@H](CO)C(N)=O (Ac-Phe-Arg-Ser-NH2)
950 µM	CC(=O)N[C@@H](CCCNC(=N)N)C(=O)N[C@@H](CO)C(=O)N[C@H](C(=O)N[C@@H](CCC(N)=O)C(N)=O)C(C)C (Ac-RSVQ-NH2)
2290 µM	CC(=O)N[C@@H](CO)C(=O)N1CCC[C@H]1C(=O)N[C@@H](Cc1ccccc1)C(=O)N[C@@H](CCCN=C(N)N)C(N)=O (Ac-SPFR-NH2)
230 µM	Ac-FRSVQ-NH2
266 µM	Ac-PFRSV-NH2
167 µM	Ac-PFRSVQ-NH2
223 µM	Ac-SPFRS-NH2
135 µM	Ac-SPFRSV-NH2
101 µM	Ac-SPFRSVQ-NH2
